{"source": "patent US20240307338A1", "about": "“USE OF PHARMACEUTICAL COMPOSITION CONTAINING CHLOROGENIC ACID IN PREPARATION OF MEDICAMENT FOR TREATING PATHOLOGIC JAUNDICE” (SICHUAN JIUZHANG BIOLOGICAL SCIENCE AND TECHNOLOGY CO., LTD., priority 2021, published 2024)", "assay_type_in_all_cases": "in vivo, SD rats", "key": {"[1]": {"tested_on": "rat model of hemolytic jaundice (acetylphenylhydrazine-induced)", "assay": "Activity assay of α-GST, ALT and AST in serum of rats with APH-induced hemolytic jaundice", "protocol": "(§1) Clean adult male SD rats, weighing 200 g-250 g. The following experiment was carried out mainly by referring to the method described in CN104739818A. In short, in the example, acetylphenylhydrazine (APH) was used as a modeling drug to construct a rat model of hemolytic jaundice, which was also a commonly used model for studying neonatal hemolytic jaundice at home and abroad. The most prominent feature of hemolytic jaundice was the collapse of the patient's red blood cells, causing hemolysis. […] At the same time, due to the rupture of red blood cells and the release of bilirubin, liver function was damaged. The mechanism and symptoms simulated by APH were similar to those of hemolytic jaundice. From 60 healthy SD rats with required body weight, 10 rats were randomly selected as the normal control group, and the remaining 50 rats were intraperitoneally injected with acetylphenylhydrazine (APH) at a dose of 150 mg/kg for 3 consecutive days, to construct the animal model of hemolytic jaundice induced by oxidation of red blood cells. […] 50 rats successfully modeled were randomly divided into 5 groups, 10 rats for each group, and the groups were respectively named as: model control group (n=10), CGA group (n=10), bifidobacteria+HMO group (n=10), CGA+bifidobacteria+HMO low-dose group (n=10), CGA+bifidobacteria+HMO high-dose group (n=10), together with the normal control group (n=10), a total of 6 experimental groups, including 60 rats. In the experiment, rats in each group were administered by gavage, while the blank group and the model group were given the solvent physiological saline by gavage. The administration time is 6 days. The composition and dosage of therapeutic drugs for each group were as follows: • (1) CGA group: CGA 60 mg/kg/day, administered by gavage with physiological saline as solvent. • (2) bifidobacteria+HMO group: Bifidobacterium brevis M16-V (6 mg/kg/day), lacto-N-neotetraose (3 mg/kg/day), and 6′-sialyllactose (3 mg/kg/day). The mixture of the above components was prepared according to the weight ratio, and using physiological saline as the solvent, the solution of the mixture was administered by gavage. • (3) CGA+bifidobacteria+HMO low-dose group: CGA (60 mg/kg/day), Bifidobacterium brevis M16-V (6 mg/kg/day), lacto-N-neotetraose (3 mg/kg/day), and 6′-sialyllactose (3 mg/kg/day). […] In this example, the activity of ALT (alanine aminotransferase) and AST (aspartate aminotransferase) was determined by rate method, while α-GST was detected using α-GST (α-glutathione s-transferase) detection kit; • (2) The blood sample stored in step (1) was taken out, and then bilirubin and direct bilirubin were detected by using the total bilirubin detection kit and the direct bilirubin detection kit."}, "[2]": {"tested_on": "rat model of hemolytic jaundice (acetylphenylhydrazine-induced)", "assay": "Determination of total, direct and indirect bilirubin in rats with APH-induced hemolytic jaundice", "protocol": "as §1"}, "[3]": {"tested_on": "rat model of hemolytic jaundice (acetylphenylhydrazine-induced)", "assay": "Detection of glutathione (GSH) by ELISA in rats with APH-induced hemolytic jaundice", "details": "after 6 days of treatment, in words, compared with the model control group (data not shown)", "protocol": "Clean adult male SD rats, weighing 200 g-250 g. The following experiment was carried out mainly by referring to the method described in CN104739818A. In short, in the example, acetylphenylhydrazine (APH) was used as a modeling drug to construct a rat model of hemolytic jaundice, which was also a commonly used model for studying neonatal hemolytic jaundice at home and abroad. The most prominent feature of hemolytic jaundice was the collapse of the patient's red blood cells, causing hemolysis. […] At the same time, due to the rupture of red blood cells and the release of bilirubin, liver function was damaged. The mechanism and symptoms simulated by APH were similar to those of hemolytic jaundice. From 60 healthy SD rats with required body weight, 10 rats were randomly selected as the normal control group, and the remaining 50 rats were intraperitoneally injected with acetylphenylhydrazine (APH) at a dose of 150 mg/kg for 3 consecutive days, to construct the animal model of hemolytic jaundice induced by oxidation of red blood cells. […] In order to explore the mechanism for the possible therapeutic effect of CGA, the GSH level of rats in each group was detected in this example. […]"}, "[4]": {"details": "after 6 days of treatment, in words, compared with the model control group"}, "[5]": {"details": "serum, after 6 days of gavage, APH model rats, mean ± SD, n=10"}, "[6]": {"details": "after 6 days of gavage, APH model rats, mean ± SD, n=10"}}, "data": [{"smiles": "O=C(/C=C/c1ccc(O)c(O)c1)O[C@@H]1C[C@](O)(C(=O)O)C[C@@H](O)[C@H]1O", "note": "[CGA, 3-O-caffeoylquinic acid]", "values": [{"measurement": "levels of α-GST, ALT, and AST in serum", "setting": "[1]; [4]", "result": "significantly decreased"}, {"measurement": "ALT", "setting": "[1]; [5]", "result": "26.5 ± 3.8", "unit": "U/L"}, {"measurement": "AST", "setting": "[1]; [5]", "result": "29.8 ± 5.1", "unit": "U/L"}, {"measurement": "α-GST", "setting": "[1]; [5]", "result": "20.9 ± 4.2"}, {"measurement": "Direct bilirubin", "setting": "[2]; [6]", "result": "1.86 ± 0.85", "unit": "µmol/L"}, {"measurement": "Indirect bilirubin", "setting": "[2]; [6]", "result": 1.51, "unit": "µmol/L"}, {"measurement": "Total bilirubin", "setting": "[2]; [6]", "result": "3.37 ± 0.93", "unit": "µmol/L"}, {"measurement": "levels of direct bilirubin, indirect bilirubin and total bilirubin", "setting": "[2]; [4]", "result": "significantly decreased"}, {"measurement": "content of GSH in serum", "setting": "[3]", "result": "increased significantly"}]}]}
